One series deals with T1, CDK6/Cyclin D3 (Homo sapiens, UniProt Q00534).
T1 construct: purchased BPS Bioscience
In words: in vitro kinase assay CDK6/Cyclin D3 (Kinase-Glo Plus). Type of series: biochemical. As to the method:
(§1) The in vitro enzymatic assays were conducted at BPS Bioscience. CDK9/Cyclin T1, CDK2/Cyclin 2A, CDK4/Cyclin D3, and CDK6/Cyclin D3 enzymatic activities were tested with an ATP Kinase-Glo Plus Luminescence kinase assay kit (Promega, V6073, Madison, WI, USA), while the CDK7/Cyclin H/MAT1 activities were tested using ADP-Glo Kinase (Promega, V6930). These assays measure kinase activity by quantifying the amount of ATP or ADP remaining in solution following a kinase reaction. The luminescent signal from the assay is correlated to the amount of ATP or ADP present and is inversely correlated to the kinase activity. The compounds were diluted to 10% DMSO and were added to the reaction so that the final concentration of DMSO was 1% in all reactions. All enzymatic reactions were conducted at 30 °C for 60 min. […] After the enzymatic reaction, the luminescence signal was measured using a BioTek Synergy 2 microplate reader (Agilent, Santa Clara, CA, USA). Kinase activity assays were performed in duplicate at each concentration and the percent of kinase activity was calculated as a ratio of luminescence intensities in the absence or in presence of the compounds. […] IC50 values were determined by the concentration causing a half-maximal percent activity (BPS Bioscience, San Diego, CA, USA).
In general terms: Kinase-Glo measures the ATP left after a reaction by luminescence.

The target of the next series is T2, CDK9/Cyclin T1 (Homo sapiens, UniProt P50750).
T2 construct: purchased BPS Bioscience
T2 sequence (P50750 whole entry): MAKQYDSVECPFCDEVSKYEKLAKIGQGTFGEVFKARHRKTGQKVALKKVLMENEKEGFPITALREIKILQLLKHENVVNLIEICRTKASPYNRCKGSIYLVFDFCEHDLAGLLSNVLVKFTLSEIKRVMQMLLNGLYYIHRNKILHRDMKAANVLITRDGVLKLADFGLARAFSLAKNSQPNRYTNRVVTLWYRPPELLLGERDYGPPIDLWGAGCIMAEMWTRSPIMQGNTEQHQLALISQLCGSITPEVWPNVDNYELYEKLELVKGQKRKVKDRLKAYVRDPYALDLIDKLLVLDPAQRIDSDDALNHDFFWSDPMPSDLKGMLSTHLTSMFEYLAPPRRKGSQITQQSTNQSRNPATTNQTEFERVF
T2 sequence (O60563 whole entry partner): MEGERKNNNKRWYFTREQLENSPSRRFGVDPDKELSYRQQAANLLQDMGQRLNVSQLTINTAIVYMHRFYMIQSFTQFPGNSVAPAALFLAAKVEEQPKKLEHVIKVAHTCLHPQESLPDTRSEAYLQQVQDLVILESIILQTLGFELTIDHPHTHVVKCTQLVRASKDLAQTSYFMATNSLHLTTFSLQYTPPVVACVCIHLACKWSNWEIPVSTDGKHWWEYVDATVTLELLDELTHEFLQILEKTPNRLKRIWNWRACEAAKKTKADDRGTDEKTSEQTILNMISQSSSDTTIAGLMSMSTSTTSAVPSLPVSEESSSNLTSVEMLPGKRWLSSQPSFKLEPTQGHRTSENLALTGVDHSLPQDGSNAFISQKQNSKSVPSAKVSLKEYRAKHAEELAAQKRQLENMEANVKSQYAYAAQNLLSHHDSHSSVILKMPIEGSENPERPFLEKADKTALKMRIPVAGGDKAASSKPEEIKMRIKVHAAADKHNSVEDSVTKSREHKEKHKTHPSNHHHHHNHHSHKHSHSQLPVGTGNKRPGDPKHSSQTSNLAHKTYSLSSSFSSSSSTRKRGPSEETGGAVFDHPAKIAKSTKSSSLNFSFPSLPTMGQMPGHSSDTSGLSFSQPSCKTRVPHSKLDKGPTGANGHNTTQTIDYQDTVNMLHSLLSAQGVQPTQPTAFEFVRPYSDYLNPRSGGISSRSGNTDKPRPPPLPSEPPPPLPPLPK
In words: in vitro kinase assay CDK9/Cyclin T1 (Kinase-Glo Plus luminescence). The class given is biochemical. As to the method: as §1

For the next series, the system named is YB5 cells. Kind of series: anchorage-dependent clonogenic assay. Type of series: cell-based, human. As to conditions: 2 weeks drug-free. As to the method:
Two hundred YB5 cells were seeded per well in 6-well plates. On the following day, YB5 cells were treated with toyocamycin for 24 h or 72 h. Decitabine (10–50 nM for 72 h) was used as a positive control for the loss of clonogenic potential. Drugs and media were replaced each day. After treatment, media was removed. YB5 cells were grown in drug-free media for 2 weeks to allow visible colony formation prior to colony staining (0.5% methylene blue in 50% methanol). YB5 colonies were counted manually.

Series [1] is described as follows: cell viability by Viacount, HCT116. Type of series: cell-based. The following applies: human, HCT116 colon cancer cells; 24 and 72 h, 50 nM to 50 µM, highest doses; read-out: cell viability relative to untreated cells. As to the method: (§2) Cell viability was measured in YB5 and HCT166 cells using Viacount (Luminex, Austin, TX, USA, 4000-0040) on a Guava flow cytometer (Millipore, Burlington, MA, USA). Colon cancer cells were grown in 96-well plates in the same conditions as in the drug screen and treated with toyocamycin and known CDK9 inhibitor BAY1251152 (Selleckchem, Houston, TX, USA). Cell culture media of each well was collected to harvest floating dead cells and kept aside for later. Cells were trypsinized (0.25% trypsin, Gibco, Waltham, MA, USA) for 5 min at 37 °C. Cell culture media of each well was added back to their corresponding wells to stop trypsinization and mixed thoroughly to obtain a single cell suspension. Viacount solution (Luminex, Austin, TX, USA, 4000-0040, 25 μL) was added to each well, and incubated (5 min at room temperature, in the dark) prior to cell viability analysis on the Guava flow cytometer.

In the next series the target is T3, CDK7/Cyclin H/MAT1 (Homo sapiens, UniProt P50613).
T3 construct: purchased BPS Bioscience
T3 sequence (P50613 whole entry): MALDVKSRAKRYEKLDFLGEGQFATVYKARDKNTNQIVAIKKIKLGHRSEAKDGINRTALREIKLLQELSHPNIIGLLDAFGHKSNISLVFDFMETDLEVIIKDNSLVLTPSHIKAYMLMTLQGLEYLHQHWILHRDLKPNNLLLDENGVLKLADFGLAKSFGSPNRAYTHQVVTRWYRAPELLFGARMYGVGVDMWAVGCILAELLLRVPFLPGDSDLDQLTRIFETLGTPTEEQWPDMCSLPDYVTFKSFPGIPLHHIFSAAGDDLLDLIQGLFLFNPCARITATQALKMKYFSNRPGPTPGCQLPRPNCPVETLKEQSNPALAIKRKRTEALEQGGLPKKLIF
T3 sequence (P51946 whole entry partner): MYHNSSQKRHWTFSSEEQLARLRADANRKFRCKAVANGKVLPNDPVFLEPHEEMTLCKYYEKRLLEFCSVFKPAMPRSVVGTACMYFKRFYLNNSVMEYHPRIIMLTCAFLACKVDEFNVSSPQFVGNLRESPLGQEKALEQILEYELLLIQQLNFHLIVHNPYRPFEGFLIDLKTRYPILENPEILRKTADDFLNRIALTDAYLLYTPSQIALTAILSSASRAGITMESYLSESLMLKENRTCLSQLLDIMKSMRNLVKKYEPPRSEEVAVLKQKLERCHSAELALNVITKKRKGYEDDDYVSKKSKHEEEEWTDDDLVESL
T3 sequence (P51948 whole entry partner): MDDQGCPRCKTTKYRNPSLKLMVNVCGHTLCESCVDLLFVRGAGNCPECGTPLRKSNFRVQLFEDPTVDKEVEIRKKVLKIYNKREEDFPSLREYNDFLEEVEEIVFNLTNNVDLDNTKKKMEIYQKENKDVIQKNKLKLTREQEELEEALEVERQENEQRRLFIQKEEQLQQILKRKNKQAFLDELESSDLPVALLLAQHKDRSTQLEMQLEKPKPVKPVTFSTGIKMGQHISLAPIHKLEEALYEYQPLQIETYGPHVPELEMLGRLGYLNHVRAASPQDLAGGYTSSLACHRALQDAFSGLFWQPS
In words: in vitro kinase assay CDK7/Cyclin H/MAT1 (ADP-Glo). Type of series: biochemical. As to the method:
as §1
In general terms: ADP-Glo first removes unused ATP, then detects ADP through luciferase.

For a further series, the system named is histone 3 and histone 4. Kind of series: histone acetylation by mass spectrometry. Type of series: cell-based, human. As to conditions: eleven lysine residues, YB5 cells. As to the method: As described previously, histone proteins were acid-extracted (0.2 N HCl) for 16 h. Histone acetylation levels were quantified on histone 3 and histone 4 by a Thermo TSQ Quantum Access triple quadrupole (QqQ) mass spectrometer (Thermofisher Scientific, Waltham, MA, USA).

The nature of series [2]: cell viability by Viacount, YB5. The class given is cell-based. As to conditions: human, YB5 colon cancer cells; 24 and 72 h, 50 nM to 50 µM, highest doses; read-out: cell viability relative to untreated cells. As to the method: as §2
Another series deals with CDK9. Kind of series: Western blot, CDK9 protein level. Type of series: cell-based, human. The following applies: HCT116, 50–500 nM, 6 h. As to the method: YB5 cells were harvested in 50 mM Tris-HCl, 1% NP-40, 1 mM EDTA, 1 mM EGTA, 0.25% sodium deoxycholate, 150 mM NaCl, 50 mM sodium fluoride, and 1X Complete protease cocktail (Roche, Basel, Switzerland) with 1 mM PMSF. The total protein concentration was measured in all samples by standard BCA protocol (Pierce-23225, Thermo Scientific, Waltham, MA, USA) to ensure that an equal amount of protein was added to each sample. Protein extracts were run on 12% SDS–PAGE precast gels (Bio-Rad, Hercules, CA, USA, 345-0118). Proteins were transferred to polyvinylidene difluoride (PVDF) membranes in 10 mmol/L CAPS (pH-11) containing 10% methanol and detected by using specific primary antibodies, horseradish peroxidase–conjugated secondary antibodies (GE Healthcare, Chicago, IL, USA), and an enhanced chemiluminescence reagent (Pierce). PVDF membranes were incubated with specific primary antibodies (actin—A5441, Sigma, St. Louis, MO, USA; HA-tagged—H9608, Sigma; FLAG-tagged—F3165, Sigma). FLAG- and HA-tagged CDK9 plasmids were a generous gift from Dr Bassel E. Sawaya (Temple University). […] After sonication, total protein concentrations were determined using Bradford protein assay. […] Band intensity quantifications were calculated using ImageJ software, edition 1.53 [27].
For orientation: In western blotting, separated proteins are transferred to a membrane and probed.

Structures are written as SMILES. “And” between values parts separate entries of the source, which are not always exact repeats. Equal entries are not always repeated. “Also recorded” adds a separate entry of the source.

T1 sequence (Q00534 whole entry): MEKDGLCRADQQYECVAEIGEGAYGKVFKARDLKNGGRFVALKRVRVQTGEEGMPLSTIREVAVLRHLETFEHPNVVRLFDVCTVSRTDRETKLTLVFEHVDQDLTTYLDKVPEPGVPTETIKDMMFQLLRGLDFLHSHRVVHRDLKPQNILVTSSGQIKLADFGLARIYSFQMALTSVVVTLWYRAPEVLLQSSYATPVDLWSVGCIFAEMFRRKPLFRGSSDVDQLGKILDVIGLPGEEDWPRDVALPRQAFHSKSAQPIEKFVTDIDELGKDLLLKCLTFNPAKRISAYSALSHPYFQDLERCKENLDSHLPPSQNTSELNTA
T1 sequence (P30281 whole entry partner): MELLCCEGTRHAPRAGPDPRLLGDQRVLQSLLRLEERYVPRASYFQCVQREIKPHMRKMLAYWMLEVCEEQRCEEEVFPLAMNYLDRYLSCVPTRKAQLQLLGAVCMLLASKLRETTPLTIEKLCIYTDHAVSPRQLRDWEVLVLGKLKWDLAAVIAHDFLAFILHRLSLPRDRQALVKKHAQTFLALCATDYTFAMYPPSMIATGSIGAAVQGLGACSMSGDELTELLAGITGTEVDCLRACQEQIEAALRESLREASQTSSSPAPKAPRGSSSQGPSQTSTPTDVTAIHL

What is called IC50 is the concentration at which inhibition is half-maximal. A word on the viability: it is a per cent measure of how many cells are alive, often set against a control. On to `N#Cc1cn([C@@H]2O[C@H](CO)[C@@H](O)[C@H]2O)c2ncnc(N)c12` [toyocamycin, 7-Deaza-7-cyanoadenosine], for which the half-maximal inhibitory concentration (IC50) was over 10 µM at CDK6/Cyclin D3; 0.079 µM and 0.0795 µM at CDK9/Cyclin T1 (IC50, 10 µM ATP, 30 °C, 60 min); 0.08 µM at CDK9/Cyclin T1 (IC50, as quoted in docking section); 2.8 µM at CDK7/Cyclin H/MAT1. The colony formation result with YB5 cells (10 nM, 24 h treatment) is listed as “completely abrogated colony formation; also recorded: full eradication of the clonogenic potential”; in the series on YB5 cells (10–50 nM, 72 h treatment), “fully abolished colony formation”. Besides, the viability in series [1] and in series [2] was over 50% throughout. The “times less enzymatic inhibition of CDK7 as compared to CDK9” value on CDK7/Cyclin H/MAT1 (CDK7/Cyclin H/MAT1 vs CDK9/CycT1) stood at 35 times. Also, in the series with histone 3 and histone 4, the “histone 3 and 4 lysine acetylation levels” value is reported as “did not modify lysine acetylation levels”. The CDK9 levels result in the series with CDK9 is “did not change”.

The values above are taken from publication PMC9324262, “Selective CDK9 Inhibition by Natural Compound Toyocamycin in Cancer Cells” (Cancers, 2022).
